Key:
Format in all cases: cell-based
IB3-1 [1] = test: Inhibition of TNF-alpha induced NFkappaB in human IB3-1 cells assessed as reduction in IL-8 mRNA expression at 10 uM preincubated for 5 hrs followed by TNF-alpha stimulation measured after 24 hrs by RT-qPCR analysis relative to control
IB3-1 [2] = test: Inhibition of TNF-alpha induced NFkappaB in human IB3-1 cells assessed as reduction in IL-8 mRNA expression at 1 uM preincubated for 5 hrs followed by TNF-alpha stimulation measured after 24 hrs by RT-qPCR analysis relative to control
[3] = Inhibition of TNF-alpha induced NFkappaB in human IB31 cells assessed as reduction in IL-8 mRNA expression preincubated for 5 hrs followed by TNF-alpha stimulation measured after 24 hrs by RT-qPCR analysis; settings: IB3-1

Row | SMILES | inhibition (IB3-1 [1]) | inhibition (IB3-1 [2]) | IC50 [3]
1 | Cc1coc2c1c(C)cc1oc(=O)cc(C)c12 | 52% | 73% | 
2 | Cc1oc2c(c(C)cc3oc(=O)cc(C)c32)c1C | 47% | 66% | 
3 | CCCc1cc(=O)oc2c1cc(CC)c1occ(C)c12 |  |  | 19.8 µM
4 | CCc1cc2c(C)cc(=O)oc2c2c(C)coc12 |  |  | 24 µM
5 | Cc1oc2c(C)cc3c(C)cc(=O)oc3c2c1C | 56% | 57% | 
6 | Cc1cc(=O)oc2c1ccc1oc(CN)cc12 | 83% | 55% | 
7 | CCc1cc(=O)oc2c1cc(C)c1occ(C)c12 |  |  | 8 µM
8 | Cc1cc2c(CO)cc(=O)oc2c2c(C)coc12 | 52% | 51% | 
9 | Cc1cc2c(C)cc3oc(=O)cc(C)c3c2o1 | 81% | 68% | 
10 | CCCc1cc(=O)oc2c1cc(C)c1occ(C)c12 |  |  | 21.9 µM
11 | CCc1cc2c(C(C)C)cc(=O)oc2c2c(C)coc12 |  |  | 7.4 µM
12 | Cc1cc2c(C(C)C)cc(=O)oc2c2c(C)coc12 |  |  | 18.9 µM
13 | CCc1cc(=O)oc2c1cc(CC)c1occ(C)c12 |  |  | 17.8 µM

From ChEMBL document CHEMBL4406814, “Furocoumarins as multi-target agents in the treatment of cystic fibrosis” (Eur J Med Chem, 2019)
